Each molecule was assayed against T1, Farnesyl pyrophosphate synthase (Homo sapiens, UniProt P14324) (assay: Inhibition Assay). Settings: pH 7.4; 25 °C.
T1 sequence (P14324 whole entry): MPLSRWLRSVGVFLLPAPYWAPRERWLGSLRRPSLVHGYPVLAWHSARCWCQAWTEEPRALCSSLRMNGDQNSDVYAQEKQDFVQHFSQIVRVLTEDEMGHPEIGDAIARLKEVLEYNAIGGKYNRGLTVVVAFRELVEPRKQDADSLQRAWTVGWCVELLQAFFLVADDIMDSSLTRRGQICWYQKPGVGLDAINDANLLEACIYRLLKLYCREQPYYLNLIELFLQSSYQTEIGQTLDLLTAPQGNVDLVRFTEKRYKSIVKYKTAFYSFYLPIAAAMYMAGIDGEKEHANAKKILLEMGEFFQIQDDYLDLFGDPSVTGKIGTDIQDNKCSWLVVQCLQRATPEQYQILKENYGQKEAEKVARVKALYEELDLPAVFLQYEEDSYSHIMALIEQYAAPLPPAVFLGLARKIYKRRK
Excerpt: Human FPPS was expressed and purified and inhibition assays carried out as described previously.

| Compound | IC50 [µM] |
| --- | --- |
| O=C(Nc1cccc(C2=NCCN2)c1)c1ccc(C(=O)Nc2cccc(C3=NCCN3)c2)cc1 [35839, 19] | 13.7 |
| Nc1cc(C(=O)Nc2cccc(C3=NCCN3)c2)ccc1C(=O)Nc1cccc(C2=NCCN2)c1 [50464, 21] | 21 |
| Nc1cc(C(=O)Nc2ccc(C3=NCCN3)cc2)ccc1C(=O)Nc1ccc(C2=NCCN2)cc1 [50469, 20] | 20.3 |
| O=C(Nc1ccc(C2=NCCN2)cc1)c1ccc(C(=O)Nc2ccc(C3=NCCN3)cc2)c([NH+]([O-])O)c1 (stereo unspecified) [60340, 13] | 109 |
| Nc1c(C(=O)Nc2ccc(C3=NCCN3)cc2)cccc1C(=O)Nc1ccc(C2=NCCN2)cc1 [72564, 22] | 22.3 |
| O=C(Nc1ccc(C2=NCCN2)c(O)c1)c1ccc(C(=O)Nc2ccc(C3=NCCN3)c(O)c2)cc1 [76527, 23] | 35 |
| NC(=O)c1cc(NC(=O)c2ccc(C(=O)Nc3cc(C(N)=O)cc(C4=NCCN4)c3)cc2)cc(C2=NCCN2)c1 [100873, 18] | 10.7 |

The next molecules have a lower IC50 than those just listed; values first:

| IC50 [µM] | Compound |
| --- | --- |
| 7 | O=C(Nc1ccccc1C1=NCCN1)c1ccc(C(=O)Nc2ccccc2C2=NCCN2)cc1 [35844, 17] |
| 2.5 | CC1CNC(c2ccc(NC(=O)c3ccc(C(=O)Nc4ccc(C5=NC(C)CN5)cc4)c(N)c3)cc2)=N1 (stereo unspecified) [66761, 16] |
| 1.9 | O=C(Nc1ccc(C2=NCCN2)cc1)c1cccc(C(=O)Nc2ccc(C3=NCCN3)cc2)c1 [53212, 15] |
| 1.8 | O=C(Nc1cccc(C2=NCCN2)c1)c1ccc(-c2ccc(C(=O)Nc3cccc(C4=NCCN4)c3)cc2)cc1 [50460, 14] |

Source: BindingDB's records for doi:10.1111/cbdd.12121 (University of California San Diego, 2013)
